Measurements taken from patent US20200399238A1, “THERAPEUTIC AURONES” (MIDDLE TENNESSEE STATE UNIVERSITY, priority 2016, published 2020).
Where two headings read alike, the source gives them in different places.

Key:
[1] = tested on: Trypanosoma cruzi Tulahuen cells expressing beta-galactosidase; test: T. cruzi intracellular assay (beta-galactosidase, L6 host cells)
[2] = tested on: Trypanosoma brucei brucei 427 cells; test: T. brucei culture and assay (PrestoBlue); assay type: cell-based
[3] = tested on: rat skeletal muscle cell line, L6; test: cells; assay type: cell-based
Protocol: Cells were maintained in high glucose DMEM obtained from HyClone Laboratories (Logan, Utah) and supplemented with FCS and P/S at the same concentrations used for parasite culture. Cells were passaged every 3-4 days and maintained in a 37° C. humidified incubator in an atmosphere of 5% CO2. For assays. cells were detached, counted using a hemocytometer, and adjusted using fresh media to deliver 5×10^3 cells per well (90 μL) in black walled, flat clear bottom 96-well microtiter plates. After 3 h incubation for attachment, compounds diluted in culture medium were added (10 μL) to triplicate wells. Positive controls (cells treated with podophyllotoxin (Sigma, St. Louis, Mo.)), negative controls (untreated cells), solvent controls (DMSO) and media blanks were included on each plate. Following incubation for 71.5 h, 11 μL of PrestoBlue was added into each well.

[4] = tested on: Leishmania amazonensis promastigotes expressing beta-lactamase; test: microbe, parasite or virus in culture; assay type: cell-based
Protocol: Leishmania amazonensis promastigotes expressing beta-lactamase (Buckner et al., Am. J. Trop. Med. Hyg. 72 (2005) 600-605. doi:72/5/600 [pii]) were cultured in RPMI supplemented with 10% fetal calf serum and 1% pen-strep-glut solution (Sigma) at 27° C. Stationary phase promastigotes were adjusted in fresh media, treated with compounds, and incubated at 37° C. At 24 hours, 100 uL of cultures was added to 50 uL of the CellTiter Glo® solution. Luminescence readings were taken with a spectrophotometer and used to calculate inhibition.

[5] = Trypanosoma cruzi, TULAHUEN, read-out: IC50 T. cruzi, Table 1, intracellular assay, mean of 2(+) trials (^c one trial)
[6] = Trypanosoma cruzi, TULAHUEN, read-out: IC50 T. cruzi, Table 2, intracellular assay, mean of 2(+) independent trials
[7] = Trypanosoma brucei, Table 1, mean of 2(+) independent trials, read-out: IC50 T. brucei
[8] = Rattus norvegicus, Table 1, read-out: IC50 Toxicity (L6)
[9] = Leishmania amazonensis, read-out: IC50 L. amaz.
[10] = Leishmania amazonensis, read-out: IC50 L. amaz. (footnote c: value obtained from one trial)
[11] = Trypanosoma brucei, read-out: T. brucei IC50 dose
[12] = Trypanosoma cruzi, TULAHUEN, read-out: IC50 TC-I, Table 3B, weighted means of two or more independent trials
[13] = Rattus norvegicus, Table 3B, weighted means of two or more independent trials, read-out: IC50 L6
[14] = Table 1, intracellular T. cruzi IC50
[15] = Table 2, L6 IC50 / T. cruzi IC50 (intracellular assay)
[16] = Table 3A, estimated from highest L6 dose tested where no L6 IC50
[17] = Trypanosoma cruzi, TULAHUEN, read-out: IC50 TC-I, Table 3A, weighted means of two or more independent trials
[18] = Table 2, mean of 2(+) independent trials, read-out: IC50 T. brucei
[19] = Rattus norvegicus, Table 3A, weighted means of two or more independent trials, read-out: IC50 L6
[20] = Table 2, L6 mammalian cells, read-out: IC50 Toxicity (L6)
[21] = Table 2, L6 IC50 / L. amazonensis IC50
[22] = Table 2, L6 IC50 / T. brucei IC50
[23] = Table 3C, estimated from highest L6 dose tested where L6 IC50 not reached

SMILES	IC50 [1, 5]	IC50 [1, 6]	IC50 [2, 7]	IC50 [3, 8]	IC50 [4, 9]	further results
O=C1/C(=C/c2cccc([N+](=O)[O-])c2)Oc2ccccc21 [Aurone 2015]	22.6 µM	22.6 µM	29.2 µM	226 µM	1.71 µM	
O=C1/C(=C/c2cccs2)Nc2ccccc21 [AA9]	> 50 µM	> 50 µM	> 50 µM	> 200 µM	< 1 µM	
CC(C)c1ccc(/C=C2\Oc3ccccc3C2=O)cc1 [Aurone 8002, (Z)-2-(4-isopropylbenzylidene)benzofuran-3(2H)-one]	16.6 µM	16.6 µM	43.4 µM	89 µM	2.88 µM	IC50 [4, 10]: 2.88 µM
O=C1/C(=C/C=C/c2ccccc2)Oc2ccccc21 [Aurone 2013]	14.1 µM	14.1 µM	13.2 µM	58 µM	3.03 µM	IC50 ([1]; Trypanosoma cruzi, TULAHUEN, read-out: T. cruzi IC50 dose): 14.1 µM; IC50 [2, 11]: 13.2 µM; IC50 [4, 10]: 3.03 µM
O=C1/C(=C/c2ccc(Br)cc2)Oc2ccccc21 [Aurone 2009]	11.4 µM		41.7 µM	> 100 µM	10.3 µM	
Cc1ccc(/C=C2\Oc3ccccc3C2=O)o1 [Aurone 9251]	3.57 µM		35.3 µM	85.5 µM	2.36 µM	IC50 [1, 12]: 3.57 µM; IC50 [3, 13]: 85.5 µM
O=C1/C(=C/c2ccc(Br)cc2)Oc2cc(O)ccc21 [Aurone 2905, (Z)-2-(4-bromobenzylidene)-6-hydroxybenzofuran-3(2H)-one]	> 50 µM		> 50 µM	> 100 µM	39 µM	
O=C1/C(=C/c2ccc([N+](=O)[O-])cc2)Oc2ccccc21 [Aurone 2010]	20 µM	20 µM	40.7 µM	249 µM	14.5 µM	
COc1ccc(/C=C2\Oc3ccccc3C2=O)cc1OC [Aurone 2011]	21.9 µM	21.9 µM	22.9 µM	51.9 µM	1.01 µM	
O=C1/C(=C/c2cccc(Br)c2)Oc2ccccc21 [Aurone 9030, (Z)-2-(3-bromobenzylidene)benzofuran-3(2H)-one]	7.35 µM	7.35 µM	> 50 µM	> 100 µM	< 1 µM	Selectivity L6/Tc [1, 14]: >13.61; Selectivity L6/Tc [1, 15]: >13.61; Selectivity L6/TC-I [1, 16]: >13.61; IC50 [1, 17]: 7.35 µM; IC50 [2, 18]: > 50 µM; IC50 [3, 19]: > 100 µM; IC50 [3, 20]: > 100 µM; IC50 [4, 10]: < 1 µM; Selectivity L6/La ([4]; Table 1): >100; Selectivity L6/La [4, 21]: >100
Cc1ccc(/C=C2\Oc3ccccc3C2=O)cc1 [Aurone 9065, (Z)-2-(4-methylbenzylidene)benzofuran-3(2H)-one]	8.63 µM	8.63 µM	> 50 µM	> 100 µM	1.37 µM	Selectivity L6/Tc [1, 14]: >11.59; Selectivity L6/Tc [1, 15]: >11.59; Selectivity L6/TC-I [1, 16]: >11.59; IC50 [1, 17]: 8.63 µM; IC50 [2, 18]: > 50 µM; IC50 [3, 19]: > 100 µM; IC50 [3, 20]: > 100 µM; Selectivity L6/La ([4]; Table 1): >72.99; Selectivity L6/La [4, 21]: >72.99
COc1ccc(/C=C2\Oc3cc(O)ccc3C2=O)c(OC)c1OC [Aurone 2912, (Z)-6-hydroxy-2-(2,3,4-trimethoxybenzylidene)benzofuran-3(2H)-one]	> 50 µM		> 50 µM	> 100 µM	25.7 µM	
COc1ccc(/C=C2\Oc3ccccc3C2=O)c(OC)c1OC [Aurone 2001]	> 50 µM		22.4 µM	> 100 µM	13.3 µM	
O=C1/C(=C/c2ccccc2)Oc2ccccc21 [Aurone 6615, (Z)-2-benzylidenebenzofuran-3(2H)-one]	15.8 µM	15.8 µM	40.1 µM	329 µM	4.13 µM	Selectivity L6/Tc [1, 14]: 20.88; Selectivity L6/Tc [1, 15]: 20.88; Selectivity L6/TC-I [1, 16]: 20.88; IC50 [1, 17]: 15.8 µM; Selectivity L6/Tb ([2]; Table 1): 8.22; Selectivity L6/Tb [2, 22]: 8.22; Selectivity L6/Tb [2, 16]: 8.22; IC50 [3, 19]: 329 µM; Selectivity L6/La ([4]; Table 1): 79.77
N#Cc1ccc(/C=C2\Oc3ccccc3C2=O)cc1 [Aurone 2014]	23.5 µM	23.5 µM	8.12 µM	239 µM	10.7 µM	
O=C1/C(=C/c2ccc(-c3ccccc3)cc2)Oc2ccccc21 [Aurone 2018]	34.4 µM	34.4 µM	> 50 µM	298 µM	7.22 µM	
O=C1/C(=C/c2ccc(/C=C3\Oc4ccccc4C3=O)cc2)Oc2ccccc21 [Aurone 6617, (2Z,2′Z)-2,2′-(1,4-phenylenebis(methanylylidene))bis(benzofuran-3(2H)-one)]	39.1 µM	39.1 µM	35.4 µM	> 400 µM	3.62 µM	Selectivity L6/Tc [1, 14]: >10.22; Selectivity L6/Tc [1, 15]: >10.22; Selectivity L6/TC-I [1, 23]: >10.22; IC50 ([1]; Trypanosoma cruzi, TULAHUEN, read-out: IC50 TC-I, Table 3C, intracellular T. cruzi, weighted means of two or more independent trials): 39.1 µM; Selectivity L6/Tb ([2]; Table 1): >11.31; Selectivity L6/Tb [2, 22]: >11.31; Selectivity L6/Tb [2, 23]: >11.31; IC50 ([3]; Rattus norvegicus, Table 3C, weighted means of two or more independent trials, read-out: IC50 L6): > 400 µM; IC50 [3, 20]: > 400 µM; Selectivity L6/La ([4]; Table 1): >110.50; Selectivity L6/La [4, 21]: >110.50
O=C1/C(=C/c2ncc[nH]2)Oc2ccccc21 [Aurone 2026, (Z)-2-((1H-imidazol-2-yl)methylene)benzofuran-3(2H)-one]	20.9 µM	20.9 µM	16.1 µM	> 100 µM	< 1 µM	IC50 [1, 12]: 20.9 µM; selectivity for T. brucei (L6/Tb) [2]: > 6.22; IC50 [2, 11]: 16.1 µM; IC50 [3, 13]: > 100 µM
O=C1/C(=C/c2ccc[nH]2)Oc2ccccc21 [Aurone 2021]	14.6 µM	14.6 µM	38.9 µM	82.7 µM	< 1 µM	IC50 [1, 12]: 14.6 µM; IC50 [3, 13]: 82.7 µM
O=C1/C(=C/c2ccc[nH]2)Oc2cc(O)ccc21 [Aurone 2906, (Z)-2-((1H-pyrrol-2-yl)methylene)-6-hydroxybenzofuran-3(2H)-one]	> 50 µM		34.6 µM	> 100 µM	19.9 µM	
O=C1/C(=C/[c-]2cccc2)Oc2ccccc21.[Fe+2].c1cc[cH-]c1 [Aurone 3001]						IC50 ([1]; read-out: IC50 T. cruzi, Table 1, intracellular assay, mean of 2(+) trials (^c one trial)): > 50 µM; IC50 ([1]; read-out: IC50 T. cruzi, Table 2, intracellular assay, mean of 2(+) independent trials): > 50 µM; IC50 ([1]; read-out: IC50 TC-I, Table 3C, intracellular T. cruzi, weighted means of two or more independent trials): > 50 µM; IC50 ([2]; Table 1, mean of 2(+) independent trials, read-out: IC50 T. brucei): > 50 µM; IC50 [2, 18]: > 50 µM; IC50 ([2]; Table 3C, weighted means of two or more independent trials, read-out: IC50 TB): > 50 µM; IC50 ([3]; Table 1, read-out: IC50 Toxicity (L6)): > 100 µM; IC50 [3, 20]: > 100 µM; IC50 ([3]; Table 3C, weighted means of two or more independent trials, read-out: IC50 L6): > 100 µM; IC50 ([4]; Table 1, mean of 2(+) trials, ^c value from one trial, read-out: IC50 L. amaz.): < 1 µM; Selectivity L6/La [4, 21]: >100; IC50 ([4]; Table 2, mean of 2(+) independent trials, read-out: IC50 L. amaz.): < 1 µM
O=C1/C(=C/c2ccc(Cl)cc2)Oc2ccccc21 [Aurone 9019, (Z)-2-(4-chlorobenzylidene)benzofuran-3(2H)-one]	5.53 µM	5.53 µM	34.7 µM	> 100 µM	41.5 µM	Selectivity L6/Tc [1, 14]: >18.08; Selectivity L6/Tc [1, 15]: >18.08; Selectivity L6/TC-I [1, 16]: >18.08; IC50 [1, 17]: 5.53 µM; Selectivity L6/Tb ([2]; Table 1): >2.88; Selectivity L6/Tb [2, 22]: >2.88; Selectivity L6/Tb [2, 16]: >2.88; IC50 [3, 19]: > 100 µM; IC50 [3, 20]: > 100 µM; Selectivity L6/La ([4]; Table 1): >2.41; Selectivity L6/La [4, 21]: >2.41
